Experimental data from patent US10154970B2, “Methods for immunomodulation of cancer and infectious disease therapy” (The Regents of the University of California, priority 2014, dated 2018).

Assays:
IFN-γ [1] = assay: IFN-γ mRNA expression in Jurkat cells by qRT-PCR, normalized with GAPDH; assay type: cell-based, human
Protocol: (§1) FIG. 1. Interferon gamma (IFN-γ) and interleukin (IL)-2 expression in human Jurkat cells following exposure to TRIP in vitro. Jurkat cells (2×10^6) were treated with different concentrations of TRIP as indicated for 24 hours. (A) IFN-γ and (B) IL-2 mRNA expression levels were detected by quantitative real-time polymerase chain reaction (qRT-PCR) and normalized with the expression of GAPDH. *p<0.05, **p<0.01, ***p<0.001.
FIG. 2. Effect of tamoxifen on TRIP-induced expression of IFN-γ in vitro. Jurkat cells (2×10^6) were treated with TRIP (2.5 μM) and/or tamoxifen (2.5 μM) for 24 hours. The expression levels of IFN-γ were analyzed by qRT-PCR and normalized with GAPDH. **p<0.01, ***p<0.005.
(§2) FIG. 3. Effects of TRIP alone and in combination with trifluoperazine (TFP) or LY294002 (LY) on IFN-γ and IL-2 in human Jurkat cells in vitro. Jurkat cells (2×10^6) were pretreated with different concentrations of (A, B) TFP (0, 0.1, 1.0, 5.0, and 10.0 μM) and (C, D) LY294002 (0, 1, 5, 10, and 25 μM) for 1 hour, then incubated with medium containing 2.5 μM of TRIP for 24 hours. (A, C) IFN-γ and (B, D) IL-2 mRNA expression levels were detected by qRT-PCR and normalized with the expression of GAPDH. *p<0.05, **p<0.01, ***p<0.001.
(§3) FIG. 4. Effects of calmodulin, PI3K and MAPK inhibition on TRIP-induced expression of IFN-γ and IL-2 in human Jurkat cells in vitro. Jurkat cells (2×10^6) were pretreated with PD98059 (50 μM), TFP (10 μM) and LY294002 (25 μM) for 1 hour, then incubated with medium containing 2.5 μM of TRIP for 24 hours. (A) IFN-γ and (B) IL-2 mRNA expression levels were detected by qRT-PCR and normalized with the expression of GAPDH. **p<0.01, ***p<0.001, ****p<0.0001.
(§4) The potential immune regulating effects of TRIP and the possible mechanism(s) involved were determined with in vitro experiments examining the expression of T cell activating cytokines in human acute T cell leukemia Jurkat cells. The expression of IFN-γ and IL-2 RNA following exposure to increasing concentrations of TRIP (i.e., ospemifene) were first examined, followed by the effects of combining tamoxifen with TRIP on the expression of these cytokines. Different inhibitors of key T cell activation pathways—trifluoperazine (TFP), an inhibitor of calmodulin, LY294002, an inhibitor of PI3K, and PD98059, a MAPK inhibitor—in combination with TRIP were assessed for their effects on TRIP-induced expression of IFN-γ and IL-2 in Jurkat cells.
(§5) Jurkat cells (2.0×10^6) were treated with different concentrations of TRIP as indicated on the x-axis for 24 hours. (A) IFN-γ and (B) IL-2 mRNA expression levels were detected by quantitative real-time polymerase chain reaction (qRT-PCR) and normalized with the expression of GAPDH. *p<0.05, **p<0.01, ***p<0.001.
The expression levels of IFN-γ were analyzed by qRT-PCR and normalized with GAPDH. **p<0.01, ***p<0.001.
(§6) T cell activation requires multiple signals including PI3K, MAPK and calcium signaling pathways, and in order to identify the potential mechanism through which TRIP affects immune activation, Jurkat cells (2.0×10^6) were pretreated with different concentrations of TFP (0, 0.1, 1.0, 5.0 and 10.0 μM) (A, B) or LY294002 (0, 1, 5, 10 and 25 μM) (C, D) for one hour, then incubated with medium containing 2.5 μM TRIP for 24 hours. IFN-γ and IL-2 expression levels were detected by qRT-PCR and normalized with the expression of GAPDH. *p<0.05, **p<0.01, ***p<0.001.
(§7) Jurkat cells (2×10^6) were pretreated with PD98059 (50 μM), TFP (10 μM) or LY294002 (25 μM) for one hour, then incubated with medium containing 2.5 μM TRIP for 24 hours. (A) IFN-γ and (B) IL-2 mRNA expression levels were detected by qRT-PCR and normalized with expression of GAPDH. **p<0.01, ***p<0.001, ****p<0.0001.
The effects on T cell activation of different functional group substitutions on the TRIP chemical structure (Formula Ia) were examined by measuring the expression of IFN-γ and IL-2 RNA in human acute T cell leukemia Jurkat cells in vitro. […]

IL-2 = IL-2 mRNA expression in Jurkat cells by qRT-PCR, normalized with GAPDH; assay type: cell-based, human
Protocol: as §1, §2, §3, §4, §5, §6, §7
The effects on T cell activation of different functional group substitutions on the TRIP chemical structure (Formula Ia) were examined by measuring the expression of IFN-γ and IL-2 RNA in human acute T cell leukemia Jurkat cells in vitro.
A strong increase is defined as a ≥50% increase compared to the control. A moderate increase is defined as a 25-49% increase compared to the control. A weak increase is defined as a 0-24% increase compared to the control. No effect is when there was no increase compared to the control.

[2] = tested on: T-cell surface markers (CD4, CD8, PD-1, CD28); assay: Experiment 5: T-cell surface markers of spleen lymphocytes by flow cytometry; assay type: in vivo, human MUC1.Tg C57BL/6 mice
Protocol: FIG. 11. Lymphocyte phenotypes following different hormonal treatments. (A) CD3+CD4+; (B) CD3+CD8+; (C) CD3+CD28+; (D) CD8+CD28+; (E) CD3+PD-1+; and (F) CD8+PD-1+; T cell surface markers were stained with indicated antibodies after […] of TRIP (100 mg/kg), estradiol (E2; 25 μg/kg), and letrozole (0.8 mg/kg) treatments (n=8 all groups).
(§8) A total of 32 female human MUC1.Tg C57BL/6 mice, starting at approximately six weeks of age, were treated with urethane as described (Wurz G T. et al., J. Transl. Med., 11:64 (2013)). Two weeks following the final dose of urethane (Week 17), the mice were randomized into four treatment groups of approximately equal average weight (n=8, all groups): Control (no treatment); TRIP (i.e., ospemifene) 100 mg/kg; estradiol 25 μg/kg; and letrozole 0.8 mg/kg. TRIP and letrozole were prepared in DMSO and peanut oil as described above in Experiment 2 and administered daily for 14 days by oral gavage (100 μL). Estradiol was dissolved in 100% ethanol, diluted in PBS to achieve the desired concentration, and then administered daily for 14 days by s.c. injection at rotating sites using a 25-gauge needle. In Week 19, the study was terminated, 24 hours after the last treatments, and serum and spleens were collected for surface marker and Treg analyses.
(§9) After two weeks of treatment, lymphocytes were isolated from spleen. T-cell surface markers (CD4, CD8, PD-1, CD28) and regulatory T cells (Tregs) were analyzed by flow cytometry.

[3] = tested on: regulatory T cells (Tregs); assay: Experiment 5: regulatory T cells (FoxP3+/CD4+) by flow cytometry; assay type: in vivo, human MUC1.Tg C57BL/6 mice; conditions: TRIP 100 mg/kg or letrozole 0.8 mg/kg daily oral 14 days
Protocol: as §8, §9

IFN-γ [4] = assay: Experiment 5: serum IFN-γ cytokine analysis; assay type: in vivo, human MUC1.Tg C57BL/6 mice; conditions: TRIP 100 mg/kg or letrozole 0.8 mg/kg daily oral 14 days
Protocol: FIG. 13. Effects of TRIP on serum IFN-γ compared to estradiol and letrozole. Serum IFN-γ from untreated control, TRIP (100 mg/kg), estradiol (E2; 25 μg/kg), and letrozole (0.8 mg/kg) groups were analyzed following daily treatment for 14 days (n=8 all groups). **p<0.01, ***p<0.001.
TRIP and letrozole were prepared in DMSO and peanut oil as described above in Experiment 2 and administered daily for 14 days by oral gavage (100 μL). Estradiol was dissolved in 100% ethanol, diluted in PBS to achieve the desired concentration, and then administered daily for 14 days by s.c. injection at rotating sites using a 25-gauge needle. In Week 19, the study was terminated, 24 hours after the last treatments, and serum and spleens were collected for surface marker and Treg analyses.

[5] = Jurkat cells pretreated 1 hour with PD98059 50 μM, TFP 10 μM or LY294002 25 μM, then 2.5 μM TRIP 24 hours (FIG. 4)
[6] = mRNA in Jurkat cells in vitro, relative to control sample without TRIP compound
[7] = Jurkat cells pretreated 1 hour with TFP 0.1-10.0 μM or LY294002 1-25 μM, then 2.5 μM TRIP 24 hours (FIG. 3)

## COc1cccc(-c2cc(=O)c3ccccc3o2)c1N [PD98059, reference compound]
IFN-γ [1]; [5]
  TRIP-induced expression of IFN-γ: did not appear to affect
IL-2; [5]
  TRIP-induced expression of IL-2: did not appear to affect

## N#Cc1ccc(C(c2ccc(C#N)cc2)n2cncn2)cc1 [letrozole, reference compound]
[2]; TRIP 100 mg/kg or letrozole 0.8 mg/kg daily oral 14 days
  expression of surface markers, including CD8 and CD28, vs control: no difference
[2]; letrozole 0.8 mg/kg daily oral 14 days
  CD4+ T cell population: lower
[3]
  Tregs (FoxP3+/CD4+) compared to estradiol treatment: significantly inhibited
IFN-γ [4]
  serum IFN-γ concentrations compared to estradiol: significantly increased

## CC/C(=C(\c1ccccc1)c1ccc(OCCN(C)C)cc1)c1ccccc1 [tamoxifen, reference compound]
IFN-γ [1]; Jurkat cells, single agent 2.5 μM, 24 hours (FIG. 2)
  expression of IFN-γ compared to control: no apparent effect
IFN-γ [1]; Jurkat cells, tamoxifen 2.5 μM with TRIP 2.5 μM, 24 hours
  effect on the T cell activating ability of TRIP (IFN-γ expression): does not affect

## OCCOCCOc1ccc(/C(=C(/CCCl)c2ccccc2)c2ccccc2)cc1 [Z-2-{2-[4-(4-chloro-1,2-diphenyl-but-1-enyl)-phenoxy]-ethoxy}-ethanol]
IFN-γ [1]; [6]
  IFN-γ Expression: +++ (strong increase)
IL-2; [6]
  IL-2 Expression: +++ (strong increase)

## CN1CCN(CCCN2c3ccccc3Sc3ccc(C(F)(F)F)cc32)CC1 [TFP, trifluoperazine, reference compound]
IFN-γ [1]; [5]
  TRIP-induced expression of IFN-γ: significantly decreased
IFN-γ [1]; [7]
  TRIP-induced expression of IFN-γ: significantly decreased
IL-2; [5]
  TRIP-induced expression of IL-2: significantly decreased
IL-2; [7]
  TRIP-induced expression of IL-2: significantly decreased
